Results on 19 compounds are retold here after paper PMC7144022, “Quinolinecarboxamides Inhibit the Replication of the Bovine Viral Diarrhea Virus by Targeting a Hot Spot for the Inhibition of Pestivirus Replication in the RNA-Dependent RNA Polymerase” (Molecules, 2020).

Data set [1] relates to MDBK cells. As to the kind of experiment: Cytotoxicity assay, proliferation of exponentially growing MDBK cells (MTS/PMS). In kind it is cell-based, bovine. To be noted: 5 days. Here is the method: (§1) Assays were carried out, as described previously.
Data set [2] relates to BVDV NADL virus. As to the kind of experiment: CPE-based antiviral assay, BVDV NADL in MDBK cells (MTS/PMS). The following applies: for S.I.: selectivity index, CC50 vs EC50.
For data set [3], the target named is T1, BVDV (NADL) RNA-dependent RNA polymerase (RdRp) (Bovine viral diarrhea virus, UniProt P19711).
T1 construct: BVDV (NADL) RNA-dependent RNA polymerase (RdRp) was expressed and purified; made in house
T1 sequence (P19711 3270-3988): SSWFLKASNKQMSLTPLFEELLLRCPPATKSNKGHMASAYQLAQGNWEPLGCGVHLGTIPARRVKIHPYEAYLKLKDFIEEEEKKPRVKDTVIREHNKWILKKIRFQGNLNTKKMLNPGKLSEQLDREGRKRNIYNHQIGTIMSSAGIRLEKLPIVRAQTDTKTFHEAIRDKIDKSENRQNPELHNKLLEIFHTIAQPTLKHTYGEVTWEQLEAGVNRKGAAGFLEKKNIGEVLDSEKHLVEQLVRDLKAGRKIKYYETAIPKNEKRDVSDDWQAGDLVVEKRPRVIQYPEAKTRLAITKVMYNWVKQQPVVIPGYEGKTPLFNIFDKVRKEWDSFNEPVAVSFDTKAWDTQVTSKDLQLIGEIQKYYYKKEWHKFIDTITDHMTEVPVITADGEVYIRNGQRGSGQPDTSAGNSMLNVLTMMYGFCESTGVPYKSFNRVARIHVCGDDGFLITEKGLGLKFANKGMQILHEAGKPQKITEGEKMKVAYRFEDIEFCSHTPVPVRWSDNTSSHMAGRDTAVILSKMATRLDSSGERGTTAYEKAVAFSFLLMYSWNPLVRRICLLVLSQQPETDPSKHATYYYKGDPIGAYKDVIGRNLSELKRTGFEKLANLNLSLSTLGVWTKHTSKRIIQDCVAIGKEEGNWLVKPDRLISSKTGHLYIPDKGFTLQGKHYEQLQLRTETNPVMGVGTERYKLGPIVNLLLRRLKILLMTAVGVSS
To be noted: reference compounds; cited from earlier work.

For data set [4], the target named is T1, BVDV (NADL) RNA-dependent RNA polymerase (RdRp). As to the kind of experiment: RNA-dependent RNA polymerase assay, poly(C) template. To be noted: purified RdRp; for effect on the activity of the viral polymerase: up to 500 µM. Format: biochemical. The method, then:
BVDV (NADL) RNA-dependent RNA polymerase (RdRp) was expressed and purified, as described before. […] In brief, the purified BVDV polymerase (100 nM) was mixed with 100 µM GTP (containing 8.3 µM of [^3H]GTP, Perkin Elmer) and increasing concentration of the inhibitor (0.2 µM, 0.7 µM, 2 µM, 6 µM, 19 µM, 56 µM, 165 µM or 500 µM) in 50 mM Hepes pH 8.0, 10 mM KCl, 10 mM DTT, 1 mM MgCl2, 2mM MnCl2, and 0.5% igepal (Sigma). The enzyme mix and inhibitors were pre-incubated, in order to favor enzyme-inhibitor interactions before RNA binding. Reactions were started by the addition of 100 nM of poly(C) (about 500 nt in size) template. Reactions were incubated at 30 °C and stopped by addition of 50 mM EDTA. Samples were transferred onto DE-81 filters, washed with 0.3 M ammonium formate solution, and dried. Radioactivity bound to the filter was determined by liquid scintillation counting.

For data set [5], the system named is BVDV-1 (strain NADL). As to the kind of experiment: microbe, parasite or virus in culture. Format: cell-based, bovine viral diarrhea virus (BVDV). To be noted: Bovine viral diarrhea virus isolates and strains; RT-qPCR, MDBK cells.
Data set [6] relates to hepatitis C virus. As to the kind of experiment: In vitro activity against hepatitis C virus. Format: cell-based.
The target of data set [7] is BVDV WT replication complexes (Bovine viral diarrhea virus, UniProt P19711). The data set can be described thus: Replication complex (RC) assay, wild-type BVDV. The following applies: for effect on activity of BVDV WT replication complexes: RCs isolated 14 h post-infection. Format: biochemical. The method, then:
(§2) The replication complex (RC) assay is similar to the one described before. In brief, BVDV-infected MDBK cells were suspended in an ice-cold hypotonic buffer A (10 mM Tris, 10 mM NaCl pH 7.8) and were further disrupted by 50 strokes with a Dounce homogenizer. The disrupted cells were pelleted by centrifugation at 1,000× g for 5 min at 4 °C. The supernatant fraction, containing cytoplasmic material and plasma membranes, was concentrated by high-speed centrifugation at 200,000× g for 20 min at 4 °C. The pellet was resuspended in 120 µL of hypotonic buffer B (10 mM Tris, 10 mM NaCl pH 7.8 and 15% glycerol) and used for an RNA polymerase assay. Replicase reactions were carried out, as described before, with some modifications. The [α-^33P]UTP (3,000 mCi/mmol) was replaced by [α-^33P]CTP (3,000 mCi/mmol). The following incubation, RNA extraction, RNA analysis, and quantification were performed, as previously described.

Data set [8] in a line: Cytotoxicity assay, proliferation of exponentially growing MDBK cells (MTS/PMS). In kind it is cell-based, bovine. The following applies: bovine. The method, then: as §1
Data set [9] relates to classical swine fever virus (CSFV). Format: cell-based.
Data set [10] deals with RCs from MDBK cells infected with the TO505-6180res virus. The data set can be described thus: Replication complex (RC) assay, TO505-6180res BVDV. Format: biochemical, bovine viral diarrhea virus (BVDV). The following applies: RCs from TO505-6180res infected MDBK cells. Here is the method:
as §2

For data set [11], the system named is panel of unrelated RNA and DNA viruses. As to the kind of experiment: Activity against a panel of unrelated RNA and DNA viruses. In kind it is cell-based. The following applies: data not shown.
Where [12] appears, read: protection against BVDV (NADL, wild type)-induced CPE in MDBK cells, 3 days.
Where [13] appears, read: sheet CSFCII#, potency relative to TO502-2403 (EC50 0.2 µM).
Where [14] appears, read: Bovine viral diarrhea virus isolates and strains, MDBK, 72 h.
Where [15] appears, read: sheet CSFCI#, potency relative to TO505-6180 (EC50 0.07 µM).

Values joined by “and” are separate entries in the source; they are usually repeats but may differ in a detail not shown here. Equal values may be shown once.

BVDV WT replication complexes, sequence (P19711 3270-3988, one chain of several): as the sequence (P19711 3270-3988) above

What is called CC50 is the concentration giving 50% cytotoxicity. As usually defined, the EC50 is the concentration giving half of the maximal effect. On to “Cc1cccc2sc(nc12)NC(=O)c4cc(nc3ccccc34)c5cccn5 [CSFC-59]”, for which, in data set [1], the 50% cytotoxic concentration (CC50) is more than 100 µM. The same compound yielded a concentration giving a half-maximal response (EC50) in data set [2] (setting [12]) of 54 µM. Further, in [2], the S.I. is listed as 2. Also, in [2] (setting [13]), the fold increase is reported as 0.0037.

Take `CCOC(=O)c1cc2ccn3c(c-2n1)N=C(C)C3` [AG110, ethyl 2-methylimidazo[1,2-a]pyrrolo[2,3-c]pyridin-8-carboxylate]: the “inhibitory effect on the highly purified BVDV RdRp” value (from here on “inhibitory effect”) in [3] was “none of these compounds had any inhibitory effect”.

For `Nc1nc2c(ncn2[C@@H]2O[C@H](COP(=O)(O)OP(=O)(O)OP(=O)(O)O)C[C@H]2O)c(=O)[nH]1` [3′-dGTP, 3′-deoxyguanosine-5’-triphosphate, reference compound], the IC50 in data set [4] (read-out: 50% inhibitory concentration for the BVDV polymerase activity) is less than 1 µM.

On to `Brc1ccc(Cn2ccc3nc(-c4ccccc4)nc-3c2)cc1` [BPIP, 5-[(4-bromophenyl)methyl]-2-phenyl-5H-imidazo[4,5-c]pyridine], for which, in data set [3], the “inhibitory effect” value is “none of these compounds had any inhibitory effect”.

For `Nc1nc2c(cnn2CCCc2ccc3c(c2)OCO3)c2nc(-c3ccco3)nn12` [LZ37, 7-[3-(1,3-benzodioxol-5-yl)propyl]-2-(2-furyl)-7H-pyrazolo[4,3-e][1,2, 4]triazolo[1,5-c]pyrimidin-5-amine], in [3], the “inhibitory effect” value is recorded as “none of these compounds had any inhibitory effect”.

In the case of “O=C(Nc2cc(c1ccccc1)nn2)c4cc(nc3ccc(F)cc34)c5cccs5 [CSFC-124]”, the CC50 in [1] is more than 100 µM. For the same compound, in data set [2] (setting [12]), the EC50 was determined as 22 µM. Besides, in data set [2], the S.I. was 5. The fold increase in data set [2] (setting [13]) is given as 0.00909.

Regarding “Cc1cc(nn1)NC(=O)c3cc(nc2ccccc23)c4ccccc4 [CSFC-20]”, the CC50 in data set [1] is more than 100 µM. In [2], this compound registered a S.I. of 1. For the same compound, in data set [2] (setting [13]), the fold increase is 0.002.

As to `Cc1ccc2nc(NC(=O)c3cc(-c4ccco4)nc4ccccc34)sc2c1` [TO505-6180, 2-(2-furanyl)-N-(6-methyl-2-benzothiazolyl)-4-Quinolinecarboxamide], the EC50 in data set [5] is 0.03 µM and 0.06 µM; in [2] (setting [14]) it was 0.07 µM. The “in vitro activity against hepatitis C virus” value in data set [6] is “inactive”. Moreover, the “effect on activity of BVDV WT replication complexes” value in data set [7] was “inhibited the activity of the BVDV wt RCs in a dose-dependent manner”. Also, the “effect on the activity of the viral polymerase” value in data set [4] is on record as “no effect”. Further, the CC50 at 5 days in data set [8] was more than 100 µM. In addition, the “inhibition of in vitro CSFV replication” value in [9] is on record as “inhibited”. Moreover, the “fold less susceptible than BVDV wt RCs” value in data set [10] is listed as 3 to 4 fold. The “activity against a panel of unrelated RNA and DNA viruses” value in data set [11] was “inactive”.

The inhibition is the drop in the measured response relative to a control, in per cent. In the case of `O=C(Nc1ccn(-c2ccccc2)n1)c1cc(-c2ccccc2)nc2ccccc12` [TO502-2403, 2-phenyl-N-(1-phenyl-1H-pyrazol-3-yl)-4-Quinolinecarboxamide], the concentration giving a half-maximal response (EC50) in [5] is 0.06 µM and 0.05 µM; in [2] (setting [14]), 0.2 µM. For the same compound, the “in vitro activity against hepatitis C virus” value in data set [6] is “inactive”. Moreover, the “effect on activity of BVDV WT replication complexes” value in data set [7] is “inhibited the activity of the BVDV WT replication complexes in a dose-dependent manner”. The inhibition at 10 µM in data set [7] (at 10 µM, read-out: maximum inhibition of BVDV WT replication complex activity) was approximately 90%. In addition, the “effect on the activity of the viral polymerase” value in data set [4] is “no effect”. This compound also came in with a CC50 at 5 days in data set [8] of more than 100 µM. In addition, in data set [9], the “inhibition of in vitro CSFV replication” value is “inhibited”. In addition, the “activity against a panel of unrelated RNA and DNA viruses” value in data set [11] was “inactive”.

`O=C(Nc1ccn(-c2ccccc2)n1)c1cc(-c2cccs2)nc2c(Cl)cccc12` [CSFC-109, O=C(Nc1ccn(n1)c2ccccc2)c4cc(nc3c(Cl)cccc34)c5cccs5] yielded a cytotoxic concentration (CC50) at 5 days in data set [8] of 13 µM. The same compound showed a concentration giving a half-maximal response (EC50) in data set [2] (setting [14]) of 0.2 µM. In data set [2], this compound returned a S.I. of 65. Besides, the fold increase in data set [2] (setting [13]) was found to be 1.00.

Take `O=C(Nc1nc2ccc(F)cc2s1)c1cc(-c2ccccc2)nc2ccccc12` [CSFC-18, Fc1ccc2nc(NC(=O)c3cc(nc4ccccc43)c3ccccc3)sc2c1]: the CC50 at 5 days in data set [8] is more than 100 µM. Moreover, the EC50 in data set [2] (setting [14]) turned out to be 0.3 µM. The same compound had a S.I. in data set [2] of 333. Also, the fold increase in data set [2] (setting [15]) worked out at 0.23.

Take `Cc1cccc2sc(NC(=O)c3cc(-c4ccco4)nc4c(F)cccc34)nc12` [CSFC-80, Fc5cccc1c5nc(cc1C(=O)Nc2nc3c(C)cccc3s2)c4ccco4]: the CC50 at 5 days in data set [8] is more than 100 µM. Also, in data set [2] (setting [14]), the EC50 was 0.9 µM. In data set [2], this compound gave a S.I. of 111. In addition, the fold increase in [2] (setting [13]) came to 0.22.

In [8], `Cc1ccc2nc(NC(=O)c3cc4ccccc4[nH]3)sc2c1` [CSFC-28, Cc1ccc2nc(NC(=O)c3cc4ccccc4[NH]3)sc2c1] registered a CC50 at 5 days of more than 100 µM. In data set [2] (setting [14]), this compound had an EC50 of more than 100 µM. The compound also had a S.I. in [2] of 1. In addition, the fold increase in [2] (setting [15]) worked out at 0.0007.

Consider `O=C(Nc1ccn(-c2ccccc2)n1)c1cc(-c2cnccn2)nc2ccccc12` [CSFC-108, O=C(c2cc(nc1ccccc12)c3cnccn3)Nc4ccn(n4)c5ccccc5], for which the CC50 at 5 days in data set [8] is more than 100 µM. This compound showed an EC50 in data set [2] (setting [14]) of 0.2 µM. In data set [2], the S.I. was 500. In data set [2] (setting [13]), the fold increase was found to be 1.00.

For the compound `Cc1ccc2nc(NC(=O)c3ccccc3)sc2c1` [CSFC-29, Cc1ccc2nc(NC(=O)c3ccccc3)sc2c1], in data set [8], the CC50 at 5 days is more than 100 µM. The EC50 in data set [2] (setting [14]) was more than 100 µM. Also, in data set [2], the S.I. stood at 1. The fold increase in [2] (setting [15]) stood at 0.0007.

In [8], `CC(C)(C)c1cc(NC(=O)c2cc(-c3ccccc3)nc3ccccc23)no1` [CSFC-32, O=C(Nc1cc(on1)C(C)(C)C)c3cc(nc2ccccc23)c4ccccc4] returned a CC50 at 5 days of more than 100 µM. Further, the EC50 in data set [2] (setting [14]) amounted to 7.2 µM. Further, the S.I. in [2] is on record as 14. Moreover, in data set [2] (setting [13]), the fold increase worked out at 0.0278.

Regarding `O=C(Nc1cccnc1)c1cc(-c2ccccc2)nc2ccccc12` [CSFC-7, O=C(Nc1cccnc1)c1cc(nc2ccccc21)c1ccccc1], the CC50 at 5 days in [8] is more than 100 µM. The same compound yielded an EC50 in [2] (setting [14]) of more than 100 µM. The compound also had a S.I. in data set [2] of 1. Also, the fold increase in data set [2] (setting [15]) was found to be 0.0007.

Compound `Cc1cccc2sc(NC(=O)c3cc(-c4ccncc4)nc4ccccc34)nc12` [CSFC-115, Cc1cccc2sc(nc12)NC(=O)c4cc(nc3ccccc34)c5ccncc5] came in with a CC50 at 5 days in [8] of more than 100 µM. Also, a half-maximal response in data set [2] (setting [14]) (EC50) required 0.2 µM. The compound further had a S.I. in data set [2] of 500. The fold increase in [2] (setting [13]) is listed as 1.00.

Compound `O=C(Nc1ccn(-c2ccccc2Cl)n1)c1cc(-c2ccccc2)nc2ccccc12` [CSFC-131, Clc1ccccc1n2ccc(n2)NC(=O)c4cc(nc3ccccc34)c5ccccc5] showed a CC50 at 5 days in data set [8] of more than 100 µM. This compound showed an EC50 in data set [2] (setting [14]) of 0.1 µM. Moreover, the S.I. in [2] is recorded as 1000. Further, in data set [2] (setting [13]), the fold increase was 2.00.
